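Test compounds were applied to cells in 96-well plates for 48 hours at 5 doses. Abbreviation: GI50, concentration required for 50% inhibition of growth.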 Active and inactive are the calls of the source. Rule as the data show it: active = GI50 up to about 1.1 µM and inactive = higher.
Key:
Test in all cases: inhibition of tumour cell growth, NCI panel, 48 h
SNB-75 = system: SNB-75
OVCAR-4 = system: OVCAR-4
HL-60 = system: HL-60
RXF 393 = system: RXF 393
SK-MEL-28 = system: SK-MEL-28
KM12 = system: KM12
OVCAR-5 = system: OVCAR-5
IGROV-1 = system: IGROV-1
U-251 = system: U-251
M14 = system: M14
SF-295 = system: SF-295
Malme-3M = system: Malme-3M
UO-31 = system: UO-31
NCI-H460 = system: NCI-H460
UACC-62 = system: UACC-62
SR = system: SR
K562 = system: K562

Measured: GI50

CCCCCCCCCCCCCCCC(=O)NCC(OCC)OCC
inactive: SNB-75 > 100 µM | OVCAR-4 > 100 µM | HL-60 > 100 µM | RXF 393 > 100 µM | SK-MEL-28 > 100 µM | KM12 > 100 µM | OVCAR-5 > 100 µM | IGROV-1 > 100 µM | U-251 > 100 µM | M14 > 100 µM | SF-295 > 100 µM | Malme-3M > 100 µM | UO-31 > 100 µM | NCI-H460 > 100 µM | UACC-62 > 100 µM

C/C(O)=C1\CC2CN3CCc4c([nH]c5ccccc45)C3CC2CC1=O (stereo not given)
inactive: SNB-75 21.4 µM | OVCAR-4 46 µM | HL-60 32.7 µM | RXF 393 20.9 µM | SR 23.4 µM | SK-MEL-28 > 100 µM | KM12 > 100 µM | K562 28.5 µM | OVCAR-5 70 µM | IGROV-1 > 100 µM | U-251 > 100 µM | M14 49.4 µM | SF-295 > 100 µM | Malme-3M > 100 µM | UO-31 37.9 µM | NCI-H460 > 100 µM

N#C/N=C1\NC(Cc2ccccc2)C(=O)N1CCc1c[nH]c2ccccc12 (stereo not given)
inactive: SNB-75 8.87 µM | OVCAR-4 25.5 µM | HL-60 22.1 µM | RXF 393 > 10 µM | SR 33.7 µM | SK-MEL-28 23.6 µM | KM12 29.4 µM | K562 23.9 µM | IGROV-1 31.8 µM | M14 35.1 µM | SF-295 32.4 µM | UO-31 24 µM | UACC-62 23.2 µM

CCOC(=O)c1nn2c(nc1=O)sc1ccc3ccccc3c12
inactive: SNB-75 > 100 µM | OVCAR-4 > 100 µM | HL-60 > 100 µM | RXF 393 > 100 µM | SR > 100 µM | SK-MEL-28 > 100 µM | KM12 > 100 µM | K562 > 100 µM | OVCAR-5 > 100 µM | IGROV-1 > 100 µM | U-251 > 100 µM | M14 > 100 µM | SF-295 > 100 µM | Malme-3M > 100 µM | UO-31 > 100 µM | NCI-H460 > 100 µM | UACC-62 > 100 µM

O=C(NC(=O)c1cc2cc(Br)cc(Br)c2oc1=O)Oc1ccccc1
inactive: SNB-75 13.7 µM | OVCAR-4 > 100 µM | RXF 393 28.2 µM | SK-MEL-28 > 100 µM | KM12 93.8 µM | K562 > 100 µM | OVCAR-5 > 100 µM | IGROV-1 50.7 µM | U-251 28.2 µM | M14 > 100 µM | SF-295 49.9 µM | Malme-3M > 100 µM | UO-31 > 100 µM | NCI-H460 > 100 µM | UACC-62 50.7 µM

Cc1cc(C)nc(NS(=O)(=O)c2ccc(NC(=O)c3cccc4c(Nc5ccc(S(=O)(=O)N=C(N)N)cc5)c5ccc(Cl)cc5nc34)cc2)n1
inactive: SNB-75 > 100 µM | RXF 393 18.9 µM | SR 27.1 µM | SK-MEL-28 37.4 µM | KM12 30.5 µM | K562 26.2 µM | OVCAR-5 > 100 µM | U-251 15.8 µM | M14 > 100 µM | SF-295 24.1 µM | Malme-3M 85.1 µM | UO-31 41.8 µM | NCI-H460 42.8 µM | UACC-62 34.4 µM

O=C(CCc1nnc(S)[nH]1)Nc1cc(Cl)ccc1Cl
inactive: SNB-75 37.9 µM | OVCAR-4 > 100 µM | HL-60 > 100 µM | SR > 100 µM | SK-MEL-28 > 100 µM | KM12 > 100 µM | K562 > 100 µM | OVCAR-5 > 100 µM | IGROV-1 > 100 µM | U-251 > 100 µM | M14 > 100 µM | SF-295 > 100 µM | Malme-3M > 100 µM | UO-31 > 100 µM | NCI-H460 > 100 µM | UACC-62 > 100 µM

COC(=O)C(C(=O)C(=O)Nc1ccc(N)cc1[N+](=O)[O-])c1nc2ccc(Cl)cc2nc1O (stereo not given)
inactive: SNB-75 32.4 µM | OVCAR-4 > 100 µM | HL-60 > 100 µM | RXF 393 60.7 µM | SK-MEL-28 > 100 µM | KM12 > 100 µM | K562 > 100 µM | OVCAR-5 > 100 µM | IGROV-1 > 100 µM | M14 > 100 µM | SF-295 > 100 µM | Malme-3M > 100 µM | UO-31 41 µM | NCI-H460 > 100 µM | UACC-62 > 100 µM

C[C@]12CCc3nonc3C1CC[C@@H]1C2CC[C@]2(C)NC(=O)CCC12 (stereo not given in full)
inactive: SNB-75 > 100 µM | OVCAR-4 > 100 µM | HL-60 > 100 µM | RXF 393 > 100 µM | SK-MEL-28 > 100 µM | KM12 > 100 µM | K562 > 100 µM | OVCAR-5 > 100 µM | IGROV-1 > 100 µM | U-251 > 100 µM | M14 > 100 µM | SF-295 > 100 µM | Malme-3M > 100 µM | UO-31 > 100 µM | NCI-H460 > 100 µM | UACC-62 > 100 µM

O=C(CC1Sc2ccccc2NC1=O)Nc1cc(Cl)ccc1Cl (stereo not given)
inactive: SNB-75 33.4 µM | OVCAR-4 > 100 µM | HL-60 > 100 µM | RXF 393 > 100 µM | SR 27.3 µM | SK-MEL-28 > 100 µM | K562 > 100 µM | OVCAR-5 > 100 µM | IGROV-1 > 100 µM | U-251 49.9 µM | M14 > 100 µM | SF-295 > 100 µM | Malme-3M > 100 µM | UO-31 > 100 µM | NCI-H460 > 100 µM | UACC-62 > 100 µM

COC(=O)C(c1n[nH]c2ccccc12)C(C(=O)OC)c1n[nH]c2ccccc12 (stereo not given)
inactive: SNB-75 50.1 µM | OVCAR-4 18.8 µM | HL-60 16 µM | RXF 393 24.9 µM | SR 30.4 µM | SK-MEL-28 41.7 µM | KM12 > 100 µM | K562 28 µM | OVCAR-5 > 100 µM | IGROV-1 > 100 µM | U-251 > 100 µM | M14 32.1 µM | SF-295 > 100 µM | Malme-3M 42.7 µM | UO-31 > 100 µM | NCI-H460 58.3 µM | UACC-62 61.1 µM

Nc1ccc(C(c2ccccc2)(c2ccccc2)c2ccccc2)cc1
inactive: SNB-75 13.5 µM | OVCAR-4 24.7 µM | HL-60 26.8 µM | RXF 393 10.3 µM | SR 36.6 µM | SK-MEL-28 19.7 µM | KM12 55.6 µM | K562 70.6 µM | IGROV-1 52.1 µM | U-251 29.7 µM | M14 15.8 µM | SF-295 12.3 µM | Malme-3M 30.8 µM | NCI-H460 28.8 µM | UACC-62 16.5 µM

COc1ccc(C2C(Cl)C(=O)N2NC(=O)c2ccc(NC(C)=O)cc2)cc1 (stereo not given)
inactive: SNB-75 > 100 µM | OVCAR-4 > 100 µM | HL-60 > 100 µM | RXF 393 > 100 µM | SK-MEL-28 > 100 µM | K562 > 100 µM | OVCAR-5 > 100 µM | IGROV-1 > 100 µM | U-251 > 100 µM | M14 > 100 µM | SF-295 > 100 µM | Malme-3M > 100 µM | UO-31 > 100 µM | NCI-H460 > 100 µM | UACC-62 > 100 µM

From ChEMBL document CHEMBL1201862, “PubChem BioAssay data set” (2004)
